# From US20200163984A1, “USE OF ISOVALERYL SPIRAMYCIN I, II AND/OR III IN MANUFACTURING MEDICAMENT FOR TREATING AND/OR PREVENTING TUMOR, AND MEDICAMENT” (SHENYANG FUYANG PHARMACEUTICAL TECHNOLOGY CO., LTD., priority 2017, published 2020)
# Experiments:
# [1] = tested on: transplanted tumor of HL60 cells; assay: HL-60 transplanted tumor in nude mice; conditions: dose 30 mg/kg
# Method: (§1) HL-60 cells in a logarithmic growth phase were taken and subjected to a trypan blue exclusion experiment showing that the cell viability was more than 95%, then the cells were subjected to trypsinization, centrifugation, and supernatant removal. Then cell concentration was adjusted to 1×10^7/ml with matrigel, then each nude mouse was inoculated subcutaneously with 0.2 ml of cells at its right armpit and recorded as the first day of inoculation. When the tumor grows to be greater than or equal to 100 mm^3, the mice were randomly divided into 11 groups with 6 mice in each group: isovaleryl spiramycin I groups with doses of 25, 50 and 100 mg/kg, isovaleryl spiramycin II groups with doses of 25, 50 and 100 mg/kg, and isovaleryl spiramycin III groups with doses of 25, 50 and 100 mg/kg. Each group was continuously administered intragastrically for 30 days with a dose of 20 ml/kg. The mice were sacrificed the next day after drug withdrawal and the indicators were tested. The long diameter and short diameter of the tumor, and the weight of each mouse were recorded every 3 days from drug administration to nude mouse sacrifice.
# (§2) The body weight of the nude mice and the long diameter (a) and short diameter (b) of the transplanted tumor were measured every 3 days, and the tumor volume (v), relative tumor volume (RTV) and relative tumor proliferation rate (T/C) are calculated respectively according to the following formulas, wherein V=a×b^2/2; RTV=V/V0 (V0 is the tumor volume before administration, V is the tumor volume before sacrifice), and T/C (%)=treatment group RTV/model control group RTV×100%.
# (§3) Each mouse was weighed and sacrificed. After the tumor was completely stripped off from the body of the mouse, the non-tumor tissues such as blood stains and fat were removed to weigh the tumor and calculate the tumor growth inhibition rate. The average tumor weight of each group of mice is used as an indicator of efficacy. Tumor growth inhibition rate (%)=(1−the average tumor weight of the treatment group/the average tumor weight of the model group)×100%.
# [2] = tested on: transplanted tumor of human bladder cancer cell T-24; assay: T-24 transplanted tumor in nude mice; conditions: dose 30 mg/kg
# Method: as §1, with “Then cell” for “HL-60 cells in a logarithmic growth phase were taken and subjected to a trypan blue exclusion experiment showing that the cell viability was more than 95%, then the cells were subjected to trypsinization, centrifugation, and supernatant removal. Then cell”, “and the body weight of” for “and the weight of”
# as §2, §3
smiles,measurement,setting,value
"O=P1(N(CCCl)CCCl)NCCCO1 (stereo not shown) [Cyclophosphamide, cyclophosphamide, reference compound]",Inhibition Rate (%),[1],70.30%
same,Relative Tumor Proliferation Rate (T/C),[1],24.69%
same,Relative Tumor Volume (RTV),[1],2.78 ± 1.89
same,Tumor Weight,[1],0.67 ± 0.30 g
same,Body Weight (g) (d1),[1]; d 1,20.65 ± 1.47 g
same,Tumor Volume (mm3) (d 1),[1]; d 1,180.63 ± 29.97 mm3
same,Body Weight (g) (d30),[1]; d 30,18.47 ± 0.91 g
same,Tumor Volume (mm3) (d30),[1]; d 30,466.98 ± 255.88 mm3
same,Inhibition Rate (%),[2],73.04%
same,Relative Tumor Proliferation Rate (T/C),[2],21.60%
same,Relative Tumor Volume (RTV),[2],2.85 ± 0.50
same,Tumor Weight,[2],0.51 ± 0.12 g
same,Body Weight (g) (d1),[2]; d 1,19.53 ± 0.61 g
same,Tumor Volume (mm3) (d 1),[2]; d 1,136.87 ± 19.82 mm3
same,Body Weight (g) (d30),[2]; d 30,27.28 ± 1.43 g
same,Tumor Volume (mm3) (d30),[2]; d 30,389.34 ± 82.07 mm3
